Test results reported in patent US4769368A, “2,3,4,8,9,9A-Hexahydro-4-aryl-1H-indeno(1,7-CD)azepines” (SmithKline Beckman Corporation, priority 1986, dated 1988).
Structures can show the parent of a compound that is named as a salt.

Assays:
[1] = system: D2-dopamine sites (bovine pituitary); assay: Displacement of [3H] spiroperidol, bovine pituitary (D2) binding; details: at 10^-5 M, 10 µM
Text: (§1) As an example of the D1 -dopamine specificity of the compounds of this invention, a species of formula I, 6,7-dihydroxy-2,3,4,8,9-9a-hexahydro-4-phenyl-1H-indeno[1,7-cd]azepine hydrobromide, was submitted to standard binding tests for D1 and D2 -dopamine sites, see K. Flaim, loc. cit. for testing protocols.
[^3 H] spiroperidol bovine

[2] = target: T1, D1-dopamine sites (rat caudate) (Rattus norvegicus, UniProt P18901); assay: Displacement of [3H] fenoldopam, rat caudate (D1) binding; details: in words
T1 construct: rat caudate; from tissue; host or cells: rat caudate
Text: as §1
[^3 H] fenoldopam rat caudate

[3] = in words; peripheral dopaminergic agent; cited from earlier work
[4] = system: dopamine D1 and D2 receptor; details: in words; U.S. Pat. No. 4,197,297; cited from earlier work

T1 sequence (P18901 whole entry): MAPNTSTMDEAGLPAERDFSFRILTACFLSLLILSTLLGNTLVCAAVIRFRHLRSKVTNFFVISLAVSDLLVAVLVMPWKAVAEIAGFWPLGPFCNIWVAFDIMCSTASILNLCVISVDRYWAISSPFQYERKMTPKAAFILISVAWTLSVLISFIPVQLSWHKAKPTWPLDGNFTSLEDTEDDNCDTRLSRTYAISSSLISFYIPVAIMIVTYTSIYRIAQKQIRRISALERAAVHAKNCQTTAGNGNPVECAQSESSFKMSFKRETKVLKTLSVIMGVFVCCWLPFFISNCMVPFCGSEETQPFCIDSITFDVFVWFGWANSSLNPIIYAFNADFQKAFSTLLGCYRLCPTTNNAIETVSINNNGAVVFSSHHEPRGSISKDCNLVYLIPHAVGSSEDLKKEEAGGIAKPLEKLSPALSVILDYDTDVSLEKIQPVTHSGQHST

Row | Structure (SMILES) | Displacement of [3H] spiroperidol bovine pituitary (D2) [1] [%] | potency and selectivity for D1 dopamine sites [2] | described activity [3] | agonist activity [4]
1 | Oc1cc2c3c(c1O)CC[C@H]3CNC[C@H]2c1ccccc1 (stereo in doubt) [cis, cis-6,7-dihydroxy-2,3,4,8,9,9a-hexahydro-4-phenyl-1H-indeno[1-7-cd]azepinehydrobromide] | 14 | very potent and selective | – | –
2 | Oc1ccc(C2CNCCc3c2cc(O)c(O)c3Cl)cc1 (centres unmarked) [fenoldopam] | – | – | renal dilating, anti-hypertensive, anti-shock and anti-congestive heart failure activity | D1 and some D2 agonist activity
3 | Br.Oc1cc2c3c(c1O)CC[C@@H]3CNC[C@@H]2c1ccccc1 (stereo in doubt) [trans, trans-6,7-dihydroxy-2,3,4,8,9,9a-hexahydro-4-phenyl-1H-indeno[1,7-cd]azepine hydrobromide] | 0 | – | – | –
